Test results reported in patent US20190358343A1, “ADOPTIVE TRANSFER OF CAR T CELLS WITH SURFACE-CONJUGATED DRUG-LOADED NANOPARTICLES AND USES THEREOF” (University of Southern California, priority 2017, published 2019).
Like-named read-outs stand apart in the source and are kept apart here.

How the values were obtained:
PBMCs = experiment: In vitro XTT assay; assay type: cell-based, human
Description: (§1) Based on the procedure of nanoparticle-cell surface conjugation developed in Stephen et al (2010), we pioneered the utilization of CAR engineered human PBMCs as therapeutic cells that have nanoparticles conjugated to the surface. The nanoparticles encapsulate small molecule inhibitors of the A2a receptor, e.g., SCH 58261, which is highly hydrophobic and is generally unsuitable for systemic infusion. […] Therefore, SCH 58261 is a suitable drug to illustrate the advantage of this T cell-nanoparticle cargo system for the purposes of enhancing CAR T cell therapy by co-delivering therapeutic cells and adjuvant in the same unit. Compare with other compositions or systems to block the A2aR pathway, such as genetically engineering CAR-T cells with the CRISPR/Cas system or receptor siRNA knock down, a major advantage of presently disclosed composition and method is the ability of the drug to affect endogenous T cells and circulating CAR-T cells, as well as the carrier CAR-T cells themselves.

[1] = system: tumor cells (SKOV3-CD19+); experiment: In vitro XTT assay; assay type: cell-based, human
Description: as §1

[2] = cited from earlier work
adenosine receptor A2A = adenosine receptor A2A (Homo sapiens, UniProt P29274); conditions: cited from earlier work
Chain of adenosine receptor A2A (P29274 whole entry, species assumed): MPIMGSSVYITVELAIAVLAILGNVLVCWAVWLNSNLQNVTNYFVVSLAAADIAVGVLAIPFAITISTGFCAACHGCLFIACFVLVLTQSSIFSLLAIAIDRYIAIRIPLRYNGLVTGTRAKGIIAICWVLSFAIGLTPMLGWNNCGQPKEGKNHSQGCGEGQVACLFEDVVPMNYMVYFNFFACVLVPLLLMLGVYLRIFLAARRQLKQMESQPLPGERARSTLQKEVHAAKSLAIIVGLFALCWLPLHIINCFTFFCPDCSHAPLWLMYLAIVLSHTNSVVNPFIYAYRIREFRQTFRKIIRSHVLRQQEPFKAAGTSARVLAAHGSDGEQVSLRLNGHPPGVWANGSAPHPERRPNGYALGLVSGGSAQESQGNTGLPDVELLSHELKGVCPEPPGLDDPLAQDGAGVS

Nc1nc2c(cnn2CCc2ccccc2)c2nc(-c3ccco3)nn12 [SCH-58261]
cytotoxic effects (PBMCs): does not have cytotoxic effects
cytotoxic effects [1]: does not have cytotoxic effects
cytotoxic effects ([1]; listed as SCH): not directly affected
solubility [2]: poor solubility
selectivity for A2A over other adenosine receptors (adenosine receptor A2A): more than 50 times
